Patent US20040259806A1 (priority 2001, published 2004)
Like-named read-outs stand apart in the source and are kept apart here.

What was measured:
[1] = test system: spleen cells; assay: Spleen cell proliferation (Con A, LPS, tuberculin) from treated infected mice; format: in vivo
Protocol: Spleens from mice were harvested aseptically, homogenized in RPMI-1640 medium (Biolot, Russia) and filtered through two layers of sterile gauze. Erythrocytes were lysed in 0.83% percent ammonium chloride solution after centrifugation of the homogenate. Spleen cells were washed twice with RPMI-1640 with 2 mM L-glutamine and […] gentamycin (Sigma, St. Louis, Mo.), then counted using a Goriaev hemocytometer.
(§1) Spleen cells and thymic cells were isolated as described above. In vitro, thymic cells were diluted to 10^7/ml in RPMI-1640 with 2 mM L-glutamine, 80 ìg/ml gentamycin and 4% heat-inactivated fetal calf serum (Sigma, St. Louis, Mo.). Spleen cells were diluted to 3×10^6/ml in RPMI-1640 with 2 mM L-glutamine, 80 ìg/ml gentamycin and 20% inactivated fetal calf serum. 0.5 ìg/ml Concanavalin A (Con A, Sigma, St. Louis, Mo.) was used to stimulate thymic cell proliferation. For spleen cell proliferation, 0.5 ìg/ml Con A, 10 ìg/ml lipopolysaccharide (Sigma, St. Louis, Mo.), and 50 ìg/ml tuberculin purified protein derivative (PPD) were utilized. The assay was carried out in 96-well plates and cell cultures were incubated for 72 hours, or 96 hours if tuberculin was used, at 37° C. in humidified 5% CO2, then pulsed with 5 ìl Ci/ml ^3H-thymidine overnight (approximately 16 h) and harvested on filters using a semi-automated harvester (Titertek™, Flow Laboratories, Norway). Filters were dried and proliferation calculated by ^3H-thymidine incorporation by counting samples in a liquid scintillation counter (LKB 1217 Racketa, Wallace, Sweden). Data was expressed in impulses per minute.

[2] = test system: M. bovis 8; format: in vivo, mice
[3] = test system: tuberculosis; assay: SCV-07 in patients with destructive lung tuberculosis, 20 treated versus 15 control (Example 3); format: in vivo, human
Protocol: Patients with destructive lung tuberculosis, untreated previously or after inadequate antituberculosis therapy were treated. All patients received antituberculosis therapy consisting of intravenous isoniazid and four to five other drugs and the condition of each patient was examined daily. Major diagnostic criteria included physical examination, chest X-ray, sputum bacterioscopy and culture, broncho alveolar lavage examination. Also included were blood counts performed in all patients prior to SCV-07 therapy and then once per week. Blood biochemical tests including blood fibrinogen, β-lipoproteins, urea, creatinine, C-reactive protein levels, activity of alanine and asparagine transaminases were performed once per month and more frequently if needed. Sputum cultures were taken prior to therapy and one and three months after SCV-07 therapy, and serologic assays including indirect hemaglutination tests.
Bilateral lung injury was found in 11 patients. […] In all cases, the pathological process was destructive. […] Immature cavities were diagnosed in 3 cases. Multiple cavities, X-ray markers and exudative inflammation predominated in all patients.
Females slightly predominated the experimental group (55%). Patients ranged in age from 20 to 40 years of age. All patients had symptoms of toxemia, including 4 patients with severe symptoms.
Immunological studies included counting the percentage of peripheral blood lymphocyte subsets such as CD3+, CD4+, CD8+, CD20+, CD25+ and CD95+ using monoclonal antibodies. The CD4/CD8 index was calculated as well. Elevation of CD3+ and CD4+ cell levels were apparent in 7 out of 14 patients immediately after SCV-07 therapy.
Phytohemagglutinin (PHA) and purified protein derivate (PPD)-induced lymphocytes blasttransformation were also investigated.

[4] = test system: thymic cells; assay: Thymic cell proliferation (3H-thymidine) from treated infected mice; format: in vivo
Protocol: Mice thymuses were collected aseptically, homogenized, suspended in RPMI-1640 medium and filtered through two layers of sterile gauze. Cell suspensions were washed twice in RPMI-1640 with 2 mM L-glutamine and […] gentamycin, then counted using a Goriaev hemocytometer.
as §1

[5] = test system: tuberculosis; assay: SCV-07 therapy with continued traditional antituberculosis therapy in a patient (Example 2); format: in vivo, human
From the text: A patient was admitted to the hospital with infiltrative tuberculosis, destructive phase in the upper lobe and 6th segment of the right lung and 4-5th segments of the left lung. Prior to SCV-07 therapy, symptoms of bacterial intoxication, dyspnea and rales above the damaged lobes were present. […] Large foci of lung destruction surrounded by perifocal inflammation were found in the lingual lobe of the left lung. […] During immunological response assays, a decrease of CD4+ and CD8+ subsets and low lymphocyte blasttransformation responses with PHA and PPD were detected.
After two months of traditional therapy a small improvement in the patient's condition was seen; however, the reoentgenological picture was without significant change and immune responses remained inhibited.
SCV-07 was injected intramuscularly at 0.1 mg, once per day, for 5 days with continued traditional antituberculosis therapy (isoniazid at 600 mg/day intravenously, pyrazinamid at 1500 mg/day per so, rifampicin at 450 mg/day per os, kanamycin at 1000 mg/day intramuscularly). The clinical improvement was significant. Sputum culture tests became negative, cavities closed and infiltrative foci resolved. […] A normal range is approximately 26-40%. […] Finally, the blasttransformation response with PHA increased from 29% to 40%. A normal level is approximately 50%.

[6] = test system: IL-4 and IFN-γ; assay: INF-γ and IL-4 concentrations in blood serum; format: in vivo, mice
[7] = 24 days after end of therapy, Group 7 (0.1 ìg/kg ip) versus Group 3 (isoniazid control)
[8] = SCV-07 im 0.1 mg once per day for 5 days with continued traditional therapy
[9] = after 10 days, Groups 4, 5, 6 and 7

## N[C@H](CCC(=O)N[C@@H](Cc1c[nH]c2ccccc12)C(=O)O)C(=O)O [SCV-07, γ-D-glutamyl-L-tryptophan]
[1]; after 24 days, Group 6 (1 ìg/kg, 10 injections ip)
  spleen cell proliferative response with LPS: did not differ from uninfected mice
[1]; after 24 days, Groups 6 and 7 (1 ìg/kg, 10 injections ip and 0.1 ìg/kg ip)
  spleen cell proliferative response with Con A: did not differ from uninfected mice
[1]; later than 4 days of therapy, Group 6 (1 ìg/kg ip, 10 injections)
  spleen cell proliferative response to tuberculin: significantly higher than the control
[2]; 5 daily injections of 0.01 ìg/kg
  M. bovis growth in spleen culture: decreases
[2]; 10 days and 17 days after termination of treatment, groups other than Group 7
  differences between the control and experimental groups: lacked significance
[2]; [7]
  growth of M bovis cultured from spleens: 200±0 CFU
  lung weight index: 1.38±0.06
  spleen weight index: 1.59±0.25
[2]; 24 days after end of therapy, Group 7 (SCV-07 0.1 ìg/kg ip, 5 injections, with isoniazid) versus Group 3 (isoniazid control)
  increase in body weight: 30.8%
[2]; Group 5 (1 ìg/kg ip, 5 injections), 24 days after treatment
  M. bovis growth in spleen cultures, significant decrease: this trend did not occur
[2]; Group 6 (1 ìg/kg ip, 10 injections), 24 days after treatment, 275±14.1 CFU in the control
  M. bovis growth in spleen cultures: 190±21.5 CFU
[2]; Group 7 (0.1 ìg/kg ip), 4 days after therapy
  lung damage index, difference to isoniazid control (Group 3): Significant differences
[2]; Group 7 (0.1 ìg/kg ip), 10 days and 17 days after termination of treatment
  lung damage index: considerably differed from the control
[2]; Groups 5, 7, 8 and 9 (1, 0.1, 0.01 ìg/kg ip and 1 ìg/kg po), 4 days after therapy
  lung damage index, difference to untreated controls (Group 2): significant differences
[2]; all doses, 4 days after the end of 5 days of therapy (Day 28 of infection)
  lung damage index: decreased
[3]; SCV-07 treated patients
  IL-2 production after stimulation with the mitogens PHA and PPD: greatly increased
[3]; after 3 months of observation, 13.3% in the control group
  Cavity closure, patients: 25%
[3]; after 3 months, 33.3% in the control group
  Negative sputum culture tests, patients: 65%
[3]; after a month of observation, 13.3% in the control group
  Negative sputum culture tests, patients: 30%
[3]; during SCV-07 therapy
  Serum bilirubin, creatinine, urea, alanine and asparagine transaminase: stabilized
[3]; experimental group
  Hematological signs of tuberculosis activity including white blood cell counts and ESR: mostly diminished
  body temperature: decreased in all cases
[3]; experimental group (20 patients)
  Moist rates resolved: 16 patients
[3]; experimental group compared with control group
  T-cell blasttransformation responses (PHA, PPD): markedly increased
[3]; following two months of SCV-07 therapy
  chest X-ray and tomogram: resolution of the infiltrate-like shadow
[3]; immediately after SCV-07 therapy
  CD4+/CD8+ ratio: increased
[3]; in one month
  Serum biochemical inflammation markers such as fibrinogen, β-lipoprotein, CRP: decreased
[3]; out of 14 patients, immediately after SCV-07 therapy
  Elevation of CD3+ and CD4+ cell levels, patients: 7 patients
[3]; within a month, experimental group (20 patients), with antituberculosis therapy
  Toxemia symptoms substantially resolved: half of the patients
[4]; SCV-07 treated (Groups 4 to 9) versus control (Groups 1 to 3)
  basal thymic cell proliferation: No significant differences
[4]; after 4 days, Group 7 (0.1 ìg/kg ip) in comparison to Group 3 (isoniazid control)
  Con A stimulated thymic cell proliferation: significantly higher
[4]; day 17, Groups 7 and 8 (0.1 and 0.01 ìg/kg ip)
  Con A stimulated thymic cell proliferation response: essentially the same response as uninfected mice
[4]; day 24, Groups 6, 7 and 8 (1 ìg/kg 10 injections ip, 0.1 and 0.01 ìg/kg ip)
  Con A stimulated thymic cell proliferation: higher numbers than the isoniazid control
[5]; [8]
  Immunological responses: close to normal
  Sputum culture tests: negative
  cavities: closed
  infiltrative foci: resolved
[5]; SCV-07 intramuscularly 0.1 mg once per day for 5 days with continued traditional therapy
  clinical improvement: significant
[5]; post SCV-07, increased from 1.011×10^9/l
  CD3+ lymphocytes: 1.441e+09 L⁻¹
[5]; post SCV-07, increased from 12%, normal range approximately 26-40%
  CD8+ numbers: 21%
[5]; post SCV-07, increased from 29%, normal level approximately 50%
  blasttransformation response with PHA: 40%
[5]; post SCV-07 treatment
  Lymphocyte functional abilities: markedly elevated
[6]; [9]
  IFN-γ levels in blood serum: increased
  IL-4 levels in blood serum: decreased
[6]; after 17 days, Groups 4, 5, 6, 7 and 8 (significantly in group 7 and 8)
  concentration of IFN-γ in blood serum: increased
[6]; after 17 days, Groups 5, 6 and 7
  IL-4 in blood serum: significantly decreased
